# Test results reported in patent US6495591B1, “Fungal efflux pump inhibitors” (Essential Therapeutics, Inc., priority 1997, dated 2002).
# Tests used:
# Format in all cases: cell-based
# YEM 30 C. albicans wt = assay: FEPI MIC with/without 1/8 fluconazole MIC at 24 hrs (Table 11); details: YEM 30, 24 hrs, 80% inhibition; for MIC of compound in the presence of fluconazole (+): 1/8 × MIC of fluconazole
# [1] = system: YEM 27 C. albicans ΔCDR1ΔCDR2 ΔBENΔFLU1; assay: microbe, parasite or virus in culture; details: YEM 27, 24 hrs, 80% inhibition; for MIC of compound in the presence of fluconazole (+): 1/8 × MIC of fluconazole
# YEM 53 C. krusei = assay: FEPI MIC with/without 1/8 fluconazole MIC at 24 hrs (Table 11); details: YEM 53, 24 hrs, 80% inhibition; for MIC of compound in the presence of fluconazole (+): 1/8 × MIC of fluconazole
# [2] = system: YEM 15 C. albicans, CDR1CDR2 up; assay: microbe, parasite or virus in culture; details: YEM 15, 24 hrs, 80% inhibition; for MIC of compound in the presence of fluconazole (+): 1/8 × MIC of fluconazole
# [3] = system: YEM 24 C. albicans ΔCDR1, ΔCDR2; assay: microbe, parasite or virus in culture; details: YEM 24, 24 hrs, 80% inhibition; for MIC of compound in the presence of fluconazole (+): 1/8 × MIC of fluconazole
# [4] = system: YEM 13 C. albicans BEN up; assay: microbe, parasite or virus in culture; details: YEM 13, 24 hrs, 80% inhibition; for MIC of compound in the presence of fluconazole (+): 1/8 × MIC of fluconazole
# YEM 51 C. glabrata wt = assay: FEPI MIC with/without 1/8 fluconazole MIC at 24 hrs (Table 11); details: YEM 51, 24 hrs, 80% inhibition; for MIC of compound in the presence of fluconazole (+): 1/8 × MIC of fluconazole
# [5] = system: YEM 17 C. glabrata, CgCDR up; details: 24 hrs, 80% inhibition; for MIC of compound in the presence of fluconazole (+): 1/8 × MIC of fluconazole
# Aspergillus fumigatus = assay: FEPI MICs in combination with 1/4 the azole's MIC (Table 12); design: FEPI MIC (alone): unit not given here; details: for FEPI MIC with fluconazole, 60% Inh / FEPI MIC with fluconazole, 80% Inh: fluconazole 32 μg/ml (1/4 MIC); for FEPI MIC with fluconazole, 60% Inh / FEPI MIC with itraconazole, 60% Inh / FEPI MIC with ketoconazole, 60% Inh: 60% inhibition; for FEPI MIC with fluconazole, 80% Inh / FEPI MIC with itraconazole, 80% Inh / FEPI MIC with ketoconazole, 80% Inh / FEPI MIC (alone): 80% inhibition; for FEPI MIC with itraconazole, 60% Inh / FEPI MIC with itraconazole, 80% Inh: itraconazole 0.063 μg/ml (1/4 MIC); for FEPI MIC with ketoconazole, 60% Inh / FEPI MIC with ketoconazole, 80% Inh: ketoconazole 4 μg/ml (1/4 MIC); for FEPI MIC (alone): no azole, 35° C., CM Broth
# Protocol: The combinations were tested against a series of Candida strain with known expression of efflux pumps or with complete deletion of all known pumps and Aspergillus fumigatus. Results are reported as minimum inhibitory concentration (MIC) of […] in the presence or absence of […]. A total of 27 distinct milbemycins were studied.
Compound,MIC of compound in the presence of fluconazole (+) (YEM 30 C. albicans wt),MIC of compound in the absence of fluconazole (−) (YEM 30 C. albicans wt),MIC of compound in the presence of fluconazole (+) [1],MIC of compound in the absence of fluconazole (−) [1],MIC of compound in the presence of fluconazole (+) (YEM 53 C. krusei),MIC of compound in the absence of fluconazole (−) (YEM 53 C. krusei),MIC of compound in the presence of fluconazole (+) [2],MIC of compound in the absence of fluconazole (−) [2],MIC of compound in the presence of fluconazole (+) [3],MIC of compound in the absence of fluconazole (−) [3],MIC of compound in the presence of fluconazole (+) [4],MIC of compound in the absence of fluconazole (−) [4],MIC of compound in the presence of fluconazole (+) (YEM 51 C. glabrata wt),MIC of compound in the absence of fluconazole (−) (YEM 51 C. glabrata wt),MIC of compound in the presence of fluconazole (+) [5],MIC of compound in the absence of fluconazole (−) [5],"FEPI MIC with fluconazole, 60% Inh (Aspergillus fumigatus)","FEPI MIC with fluconazole, 80% Inh (Aspergillus fumigatus)","FEPI MIC with itraconazole, 60% Inh (Aspergillus fumigatus)","FEPI MIC with itraconazole, 80% Inh (Aspergillus fumigatus)",further results
"C/C1=C\C[C@@H]2CC(C[C@]3(CC[C@H](C)[C@@H](C)O3)O2)OC(=O)c2cc(C)c(O)cc2/C(C)=C/C=C/[C@H](C)C1 [Compound 13, Milbemycin β3]",0.125 µg/mL,> 64 µg/mL,> 64 µg/mL,> 64 µg/mL,> 64 µg/mL,> 64 µg/mL,8 µg/mL,> 64 µg/mL,> 64 µg/mL,> 64 µg/mL,64 µg/mL,> 64 µg/mL,> 64 µg/mL,> 64 µg/mL,64 µg/mL,> 64 µg/mL,32,>64,64,>64,"FEPI MIC with ketoconazole, 60% Inh (Aspergillus fumigatus): 0.5; FEPI MIC with ketoconazole, 80% Inh (Aspergillus fumigatus): 0.5; FEPI MIC (alone) (Aspergillus fumigatus): >64"
"C/C1=C\C[C@@H]2C[C@@H](C[C@]3(CC[C@H](C)[C@@H](C)O3)O2)OC(=O)[C@@H]2C=C(COC(=O)C(C)C)[C@@H](O)[C@H]3OC/C(=C\C=C\[C@H](C)C1)[C@]32O [Compound 20, 4a-O-isobutyryl milbemycin α1]",≦0.06,> 64 µg/mL,64 µg/mL,> 64 µg/mL,4 µg/mL,> 64 µg/mL,≦0.03,> 64 µg/mL,> 64 µg/mL,> 64 µg/mL,64 µg/mL,> 64 µg/mL,2 µg/mL,> 64 µg/mL,4 µg/mL,> 64 µg/mL,2,4,0.25,8,"FEPI MIC with ketoconazole, 60% Inh (Aspergillus fumigatus): ≦0.063; FEPI MIC with ketoconazole, 80% Inh (Aspergillus fumigatus): ≦0.063; FEPI MIC (alone) (Aspergillus fumigatus): 64"
"CCC(C)C1OC2(CC3CC(CC=C(C)C(OC4CC(OC)C(O)C(C)O4)C(C)C=CC=C4COC5C(O)C(C)=CC(C(=O)O3)C45O)O2)CC(O)C1C (stereo not drawn) [Compound 23, Avermectin B2a monoglycoside]",≦0.03,> 64 µg/mL,> 64 µg/mL,> 64 µg/mL,> 64 µg/mL,> 64 µg/mL,64 µg/mL,> 64 µg/mL,> 64 µg/mL,> 64 µg/mL,> 64 µg/mL,> 64 µg/mL,> 64 µg/mL,> 64 µg/mL,> 64 µg/mL,> 64 µg/mL,>64,>64,64,>64,"FEPI MIC with ketoconazole, 60% Inh (Aspergillus fumigatus): ≦0.063; FEPI MIC with ketoconazole, 80% Inh (Aspergillus fumigatus): 8; FEPI MIC (alone) (Aspergillus fumigatus): >64"
